Assay results: patent US20200237731A1, “USE OF CLOXACILLIN TO INHIBIT/PREVENT BIOFILM FORMATION” (priority 2017, published 2020)
“Also recorded” adds a separate entry of the source. Read-outs that look alike come from different tables or passages of the source.

Assays:
[1] = test system: Staphylococcus aureus strains S14 and S39; assay: MIC of cloxacillin (medium not stated); type: cell-based; details: for MIC: Staphylococcus aureus
Procedure: (§1) The determination of each minimum inhibitory concentration (MIC) of cloxacillin was measured conventionally by measuring the growth of each strain in 96-well microplates in the presence of concentrations of antibiotic by absorbance.

[2] = test system: Staphylococcus aureus strains S14 and S39; assay: Implanted subcutaneous catheter infection model in mice; type: in vivo; details: 12 h, 24 h and 30 h
[3] = test system: clinical strains of Staphylococcus aureus; assay: MIC of cloxacillin by growth (absorbance) in 96-well microplates, brain heart infusion (BHI) medium; type: cell-based
Procedure: as §1
The MIC was measured in Mueller-Hinton medium (MH; reference medium for antibiotic susceptibility testing) and brain heart infusion (BHI) medium.

[4] = test system: Staphylococcus aureus strain S14; assay: Infected skin wound healing model in mice; type: in vivo, C57BL/6 mice
Procedure: The objective of these trials was to test the efficacy of cloxacillin, at selected doses, in an in vivo model of mouse skin wound infection with strains of Staphylococcus aureus. The in vivo efficacy of specific doses of cloxacillin, derived from the in vitro MIC and MICb doses, was determined by measuring bacterial load (established as a biofilm) at 12 h, Day 5 and Day 11 post-infection, and by measuring wound healing at Day 5 and Day 11 post-infection (as a wound healing score).
In this example, the mice used were 7-week-old female C57BL/6 mice weighing between 20 and 22 g from Janvier Labs, Le Genest St Isle, 53941 St Berthevin, France. The number of mice used was 5 per condition tested.
The concentration of S. aureus was adjusted in PBS to give a concentration of 10^6 CFU in 10 μL (10^8 CFU/mL). The mice, shaved on their backs, were anaesthetized with isoflurane gas and then 4 incisions were made on each side of the spine, defining 2 areas. In each mouse, only one of the areas was infected by subcutaneous injection of 10 μL of S. aureus solution, with the contralateral area serving as the uninfected control.
To test the effect of cloxacillin, 3 groups of mice received, 30 minutes pre-infection, a “preventive” treatment of 5 mg/kg cloxacillin (for mice subsequently receiving cloxacillin at 3 mg/kg) or 30 mg/kg cloxacillin (for mice subsequently receiving cloxacillin at 15 mg/kg) or sterile saline intraperitoneally. These doses were determined in an in-house PK/PD study.
The mice were then treated every two hours after the first preventive treatment for 10 hours with cloxacillin at 3 mg/kg or 15 mg/kg or saline. These doses were pre-determined to simulate blood levels between the planktonic MIC and the biofilm MIC of strain S14.
Three groups of mice were used, a first group being sacrificed at t+12 h after infection to measure the bacterial load. A second group was treated identically and sacrificed 5 days after infection and a third group, treated identically, was sacrificed 11 days after infection. Each day, a healing score is established on the animals, and on the sacrificed animals, a count of the bacteria installed is made (at D5 and D11). The score is established as follows, assigning a value between 0 and 3.
The skin at the wounds is cut, rinsed in PBS to remove non-adhered bacteria and then the tissue is homogenized in Precellys tubes using glass beads. The resulting homogenate was diluted serially, and different dilutions were spread on TSA media plates and cultured overnight at 37° C. Colonies (CFU) were quantified for each dilution and the bacterial load at the wound site was determined.

[5] = test system: Staphylococcus aureus strains S14 and S39; assay: Confocal microscopy of bacterial adhesion to polystyrene well bottom; type: cell-based; details: for effect on adhesion / biofilm formation / effect on bacterial adhesion: 4 h; for effect on bacterial adhesion: strain S39
Procedure: Six-well polystyrene microplates of the same nature and with exactly the same properties as the microplates used in Example 1 (Antibiofilmogram®), i.e. Costar 6-well microplates, product code 3736. The 6-well microplates were used to obtain a sufficient surface area of biofilm formation for confocal microscopy observation. The concentrations corresponding to the MIC and MICb of the strains were tested. At the same time, controls in the absence of antibiotics, strains S14 and S39 were performed. After incubation for 4 h at 37° C. (similar to the conditions used in Example 1 (Antibiofilmogram®), the bottoms of the microplates were cut out and assembled with a glass slide in order to be able to proceed to the observation under confocal microscopy. The observation conditions were as follows: Objective: ×40; Zoom: ×2; Format: 2048×2048 pixels; Laser power; Zmax and Zmin: number of images in the stack; Size between each image: 0.42 μm. “Live/Dead” staining was performed. SYTO9 stains live (and dead) bacteria, while propidium iodide specifically stains dead bacteria. The result was obtained with an analysis of 2880 images (“Slices”).
The percentage of biofilm covering the bottom surface of the well bottom as a percentage of surface cover is shown on the vertical axis. In FIG. 2A, the density of S14 bacteria adhered to the bottom of the wells was shown and analyzed. […] In particular, from 10% to more than 20% of the bottom surface of the well was covered after 4 h of incubation, which is excessive to consider a use in a therapeutic treatment at this dose.

`Cc1onc(-c2ccccc2Cl)c1C(=O)N[C@@H]1C(=O)N2[C@@H]1SC(C)(C)[C@@H]2C(=O)O` [cloxacillin] was tested. Which MIC ([1]; strain S14, read-out: minimum inhibitory concentration (MIC)) did it give?
The MIC was 0.25 µg/mL.

What about the MIC ([1]; strain S39, read-out: minimum inhibitory concentration (MIC)) of the same molecule?
The MIC was 0.125 µg/mL.

And the “minimum inhibitory concentration (MIC)” value ([1]; strain S14)?
Its value is 0.125 µg/mL.

And the “minimum inhibitory concentration (MIC)” value ([1]; strain S39)?
The value was 0.25 µg/mL.

And the “bacteria attached to the implanted catheter (log CFU/g catheter) vs control” value ([2]; strain S14, MIC dose (5 mg/kg pre-infection, then 3 mg/kg every 2 h for 10 h, intraperitoneal))?
The value was “ineffectiveness”.

And the “bacteria attached to the implanted catheter (log CFU/g catheter) vs control” value ([2]; strain S14, MICb dose (30 mg/kg pre-infection, then 15 mg/kg every 2 h for 10 h, intraperitoneal))?
Its value is “statistically significant difference from control (***)”.

And the “bacteria attached to the implanted catheter (log CFU/g catheter) vs control” value ([2]; strain S39, MIC dose (7 mg/kg pre-infection, then 4 mg/kg every 2 h for 10 h, intraperitoneal))?
Its value is “ineffectiveness”.

And the “bacteria attached to the implanted catheter (log CFU/g catheter) vs control” value ([2]; strain S39, MICb dose (45 mg/kg pre-infection, then 25 mg/kg every 2 h for 10 h, intraperitoneal))?
The value was “statistically significant difference from control (***)”.

And the MIC ([3]; strain S02)?
The MIC was 0.25 µg/mL.

And the MIC ([3]; strain S04)?
Its MIC is 0.5 µg/mL.

And the MIC ([3]; strain S08)?
Its MIC is 0.5 µg/mL.

And the MIC ([3]; strain S11)?
Its MIC is 0.5 µg/mL.

What about the MIC ([3]; strain S14) of the same molecule?
The MIC was 0.25 µg/mL.

What about the MIC ([3]; strain S16) of the same molecule?
The MIC was 0.5 µg/mL.

What about the MIC ([3]; strain S19) of the same molecule?
Its MIC is 0.5 µg/mL.

What about the MIC ([3]; strain S21) of the same molecule?
Its MIC is 0.5 µg/mL.

And the MIC ([3]; strain S22)?
Its MIC is 0.5 µg/mL.

And the MIC ([3]; strain S26)?
Its MIC is 0.25 µg/mL.

What about the MIC ([3]; strain S27) of the same molecule?
The MIC was 0.25 µg/mL.

And the MIC ([3]; strain S31)?
Its MIC is 0.5 µg/mL.

And the MIC ([3]; strain S34)?
Its MIC is 0.5 µg/mL.

What about the MIC ([3]; strain S38) of the same molecule?
The MIC was 0.5 µg/mL.

And the MIC ([3]; strain S39)?
The MIC was 0.125 µg/mL.

What about the MIC ([3]; strain S40) of the same molecule?
Its MIC is 0.5 µg/mL.

What about the MIC ([3]; strain S43) of the same molecule?
Its MIC is 0.25 µg/mL.

What about the MIC ([3]; strain S44) of the same molecule?
Its MIC is 0.5 µg/mL.

What about the MIC ([3]; strain S46) of the same molecule?
The MIC was 0.125 µg/mL.

What about the MIC ([3]; strain S47) of the same molecule?
The MIC was 0.25 µg/mL.

What about the MIC ([3]; strain S51) of the same molecule?
The MIC was 0.25 µg/mL.

And the MIC ([3]; strain S58)?
The MIC was 0.25 µg/mL.

And the MIC ([3]; strain S62)?
Its MIC is 0.5 µg/mL.

What about the MIC ([3]; strain S63) of the same molecule?
Its MIC is 0.25 µg/mL.

What about the MIC ([3]; strain S74) of the same molecule?
Its MIC is 0.25 µg/mL.

And the MIC ([3]; strain S83)?
Its MIC is 0.125 µg/mL.

What about the wound-healing score ([4]; infected wounds, strain S14, MIC dose (3 mg/kg)) of the same molecule?
Its wound-healing score is “absence of cloxacillin effect on wound healing”.

And the wound-healing score ([4]; infected wounds, strain S14, MICb dose (15 mg/kg), up to day 6)?
The wound-healing score was “decreases more rapidly”.

What about the “decrease of bacterial load at the wound site vs control” value ([4]; strain S14, MICb dose (15 mg/kg), 12 h post-infection) of the same molecule?
The value was roughly 3 logio.

And the wound-healing score ([4]; uninfected wounds)?
The wound-healing score was “does not have a per se effect on wound healing”.

What about the “effect on adhesion / biofilm formation” value ([5]; strain S14, MIC dose (0.25 μg/mL)) of the same molecule?
The value was “allows a decrease in bacterial adhesion but does not inhibit it; also recorded: did not inhibit the adhesion”.

What about the “bottom surface of the well covered by bacteria” value ([5]; strain S14, MIC dose (0.25 μg/mL), 4 h incubation) of the same molecule?
The value was 10%.

What about the “effect on adhesion / biofilm formation” value ([5]; strain S14, MICb dose (2 μg/mL)) of the same molecule?
The value was “completely inhibit the adhesion”.

What about the “effect on adhesion / biofilm formation” value ([5]; strain S14, sub-MIC dose (0.125 μg/mL, 0.5 MIC)) of the same molecule?
Its value is “no effect on biofilm formation; also recorded: did not inhibit the adhesion”.

What about the “effect on adhesion / biofilm formation” value ([5]; strain S14, sub-MICb dose (1 μg/mL)) of the same molecule?
Its value is “completely inhibit the adhesion”.

What about the “effect on bacterial adhesion” value ([5]; MIC dose (0.125 μg/mL)) of the same molecule?
The value was “no effect on bacterial adhesion”.

And the “effect on bacterial adhesion” value ([5]; MICb dose (6 μg/mL))?
Its value is “completely inhibit the adhesion”.

And the “effect on bacterial adhesion” value ([5]; sub-MIC dose (1/2 MIC))?
The value was “no effect on bacterial adhesion”.

What about the “effect on bacterial adhesion” value ([5]; sub-MICb dose (3 μg/mL)) of the same molecule?
The value was “completely inhibit the adhesion”.
